Laboratory results reported in patent publication US6737383B1, “Herbicidal oxadiazolidines” (priority 1999, dated 2004).

Columns and labels:
bedstraw = test: Test B pre/postemergence bedstraw; format: in vivo, Galium aparine; settings: for Bedstraw plant response rating: scale 0 to 10 (0 no effect, 10 complete control); for Plant response rating, Bedstraw: scale of 0 to 10 where 0 is no effect and 10 is complete control
From the text: (§1) Seeds of bedstraw (Galium aparine), blackgrass (Alopecurus myosuroides), surinam grass (Brachiaria decumbens), cocklebur (Xanthium strumarium), corn (Zea mays), crabgrass (Digitaria sanguinalis), giant foxtail (Setaria faberii), morningglory (Ipomoea hederacea), pigweed (Amaranthus retroflexus), rape (Brassica napus), soybean (Glycine max), sugar beet (Beta vulgaris), velvetleaf (Abutilon theophrasti), wheat (Triticum aestivum), wild oat (Avena fatua) and purple nutsedge (Cyperus rotundus) tubers were planted and treated preemnergence with test chemicals formulated in a non-phytotoxic solvent mixture which included a surfactant.
(§2) At the same time, these crop and weed species were also treated with postemergence applications of test chemicals formulated in the same manner. Plants ranged in height from 2 to 18 cm (1- to 4-leaf stage) for postemergence treatments. Plant species in the flood test consisted of rice (Oryza sativa), smallflower flatsedge (Cyperus difformis), duck salad (Heteranthera limosa) and bamyardgrass (Echinochloa crus-galli) grown to the 2-leaf stage for testing. Treated plants and controls were maintained in a greenhouse for twelve to sixteen days, after which all species were compared to controls and visually evaluated. Plant response ratings, summarized in Table B, are based on a scale of 0 to 10 where 0 is no effect and 10 is complete control. A dash (−) response means no test result.

blackgrass = test: Test B pre/postemergence blackgrass; format: in vivo, Alopecurus myosuroides; settings: for Plant response rating, Blackgrass: scale of 0 to 10 where 0 is no effect and 10 is complete control
From the text: as §1, §2

surinam grass = test: Test B pre/postemergence surinam grass; format: in vivo, Brachiaria decumbens; settings: for Plant response rating, B. signalgrass: scale of 0 to 10 where 0 is no effect and 10 is complete control
From the text: as §1, §2

cocklebur = test: Test B pre/postemergence cocklebur; format: in vivo, Xanthium strumarium; settings: for Plant response rating, Cocklebur: scale of 0 to 10 where 0 is no effect and 10 is complete control
From the text: as §1, §2

corn = test: Test B pre/postemergence corn; format: in vivo, Zea mays; settings: for Plant response rating, Corn: scale of 0 to 10 where 0 is no effect and 10 is complete control
From the text: as §1, §2

crabgrass = test: Test B pre/postemergence crabgrass; format: in vivo, Digitaria sanguinalis; settings: for Plant response rating, Crabgrass: scale of 0 to 10 where 0 is no effect and 10 is complete control
From the text: as §1, §2

giant foxtail = test: Test B pre/postemergence giant foxtail; format: in vivo, Setaria faberii; settings: for Plant response rating, Giant foxtail: scale of 0 to 10 where 0 is no effect and 10 is complete control
From the text: as §1, §2

morningglory = test: Test B pre/postemergence morningglory; format: in vivo, Ipomoea hederacea; settings: for Plant response rating, Morningglory: scale of 0 to 10 where 0 is no effect and 10 is complete control
From the text: as §1, §2

pigweed = test: Test B pre/postemergence pigweed; format: in vivo, Amaranthus retroflexus; settings: for Plant response rating, Redroot pigweed: scale of 0 to 10 where 0 is no effect and 10 is complete control
From the text: as §1, §2

rape = test: Test B pre/postemergence rape; format: in vivo, Brassica napus; settings: for Plant response rating, Rape: scale of 0 to 10 where 0 is no effect and 10 is complete control
From the text: as §1, §2

soybean = test: Test B pre/postemergence soybean; format: in vivo, Glycine max; settings: for Plant response rating, Soybean: scale of 0 to 10 where 0 is no effect and 10 is complete control
From the text: as §1, §2

sugar beet = test: Test B pre/postemergence sugar beet; format: in vivo, Beta vulgaris; settings: for Plant response rating, Sugarbeets: scale of 0 to 10 where 0 is no effect and 10 is complete control
From the text: as §1, §2

velvetleaf = test: Test B pre/postemergence velvetleaf; format: in vivo, Abutilon theophrasti; settings: for Plant response rating, Velvetleaf: scale of 0 to 10 where 0 is no effect and 10 is complete control
From the text: as §1, §2

wheat = test: Test B pre/postemergence wheat; format: in vivo, Triticum aestivum; settings: for Plant response rating, Wheat: scale of 0 to 10 where 0 is no effect and 10 is complete control
From the text: as §1, §2

wild oat = test: Test B pre/postemergence wild oat; format: in vivo, Avena fatua; settings: for Plant response rating, Wild oats: scale of 0 to 10 where 0 is no effect and 10 is complete control
From the text: as §1, §2

purple nutsedge = test: Test B pre/postemergence purple nutsedge; format: in vivo, Cyperus rotundus
From the text: as §1, §2

[1] = Postemergence, Rate 31 g/ha, visual rating, scale 0 to 10 (0 no effect, 10 complete control)
[2] = Postemergence, Rate 125 g/ha, scale 0 to 10, 0 is no effect, 10 is complete control
[3] = Postemergence, Rate 250 g/ha, scale 0 to 10
[4] = Preemergence, Rate 31 g/ha, visual rating, scale 0 to 10 (0 no effect, 10 complete control)
[5] = Preemergence, Rate 250 g/ha, scale 0 to 10, 0 is no effect, 10 is complete control
[6] = Rate 62 g/ha, Postemergence, scale 0 to 10 (0 no effect, 10 complete control)

For CC(C)N(C(=O)n1oc(=O)n(C(C)C(=O)N(C)C)c1=O)c1ccc(F)cc1F (centres unmarked) [Compound 481], the “Bedstraw plant response rating” value (bedstraw; Preemergence, Rate 31 g/ha, visual rating) was 0, the “Plant response rating, Bedstraw” value (bedstraw; Preemergence, Rate 62 g/ha) was 0 and the “Plant response rating, Bedstraw” value (bedstraw; Preemergence, Rate 125 g/ha) was 0. The “Bedstraw plant response rating” value (bedstraw; Rate 62 g/ha, Postemergence) was 0, the “Blackgrass plant response rating” value (blackgrass; [1]) was 0 and the “Blackgrass plant response rating” value (blackgrass; [2]) was 0. For the same compound, the “Blackgrass plant response rating” value (blackgrass; [3]) was 2, the “Blackgrass plant response rating” value (blackgrass; [4]) was 3 and the “Plant response rating, Blackgrass” value (blackgrass; Preemergence, Rate 62 g/ha) was 6. For the same compound, the “Plant response rating, Blackgrass” value (blackgrass; Preemergence, Rate 125 g/ha) was 6, the “Blackgrass plant response rating” value (blackgrass; [5]) was 10 and the “Blackgrass plant response rating” value (blackgrass; [6]) was 0. The “B. signalgrass plant response rating” value (surinam grass; [1]) was 0, the “B. signalgrass plant response rating” value (surinam grass; [2]) was 0 and the “B. signalgrass plant response rating” value (surinam grass; Postemergence, Rate 250 g/ha, scale 0 to 10, 0 no effect, 10 complete control) was 6. The “B. signalgrass plant response rating” value (surinam grass; [4]) was 7, the “Plant response rating, B. signalgrass” value (surinam grass; Preemergence, Rate 62 g/ha) was 7 and the “Plant response rating, B. signalgrass” value (surinam grass; Preemergence, Rate 125 g/ha) was 9. For the same compound, the “B. signalgrass plant response rating” value (surinam grass; [5]) was 9, the “B. signalgrass plant response rating” value (surinam grass; [6]) was 0 and the “Cocklebur plant response rating” value (cocklebur; [1]) was 0. The “Cocklebur plant response rating” value (cocklebur; [2]) was 0, the “Cocklebur plant response rating” value (cocklebur; [3]) was 0 and the “Cocklebur plant response rating” value (cocklebur; [4]) was 0. For the same compound, the “Plant response rating, Cocklebur” value (cocklebur; Preemergence, Rate 62 g/ha) was 0, the “Plant response rating, Cocklebur” value (cocklebur; Preemergence, Rate 125 g/ha) was 0 and the “Cocklebur plant response rating” value (cocklebur; [5]) was 0. For the same compound, the “Cocklebur plant response rating” value (cocklebur; [6]) was 0, the “Corn plant response rating” value (corn; [1]) was 0 and the “Corn plant response rating” value (corn; [2]) was 3. The “Corn plant response rating” value (corn; [3]) was 3, the “Corn plant response rating” value (corn; [4]) was 0 and the “Plant response rating, Corn” value (corn; Preemergence, Rate 62 g/ha) was 0. The “Plant response rating, Corn” value (corn; Preemergence, Rate 125 g/ha) was 0, the “Corn plant response rating” value (corn; [5]) was 0 and the “Corn plant response rating” value (corn; [6]) was 0. The “Crabgrass plant response rating” value (crabgrass; [1]) was 0, the “Crabgrass plant response rating” value (crabgrass; [2]) was 2 and the “Crabgrass plant response rating” value (crabgrass; [3]) was 2. For the same compound, the “Crabgrass plant response rating” value (crabgrass; [4]) was 7, the “Plant response rating, Crabgrass” value (crabgrass; Preemergence, Rate 62 g/ha) was 7 and the “Plant response rating, Crabgrass” value (crabgrass; Preemergence, Rate 125 g/ha) was 8. The “Crabgrass plant response rating” value (crabgrass; [5]) was 8, the “Crabgrass plant response rating” value (crabgrass; [6]) was 0 and the “Giant foxtail plant response rating” value (giant foxtail; [1]) was 0. The “Giant foxtail plant response rating” value (giant foxtail; [2]) was 2, the “Giant foxtail plant response rating” value (giant foxtail; [3]) was 8 and the “Giant foxtail plant response rating” value (giant foxtail; [4]) was 8. For the same compound, the “Plant response rating, Giant foxtail” value (giant foxtail; Preemergence, Rate 62 g/ha) was 9, the “Plant response rating, Giant foxtail” value (giant foxtail; Preemergence, Rate 125 g/ha) was 9 and the “Giant foxtail plant response rating” value (giant foxtail; [5]) was 9. The “Giant foxtail plant response rating” value (giant foxtail; [6]) was 2, the “Morningglory plant response rating” value (morningglory; [1]) was 0 and the “Morningglory plant response rating” value (morningglory; [2]) was 0. For the same compound, the “Morningglory plant response rating” value (morningglory; [3]) was 2, the “Plant response rating, Morningglory” value (morningglory; Preemergence, Rate 62 g/ha) was 0 and the “Plant response rating, Morningglory” value (morningglory; Preemergence, Rate 125 g/ha) was 0. The “Morningglory plant response rating” value (morningglory; [5]) was 0, the “Morningglory plant response rating” value (morningglory; [6]) was 0 and the “Redroot pigweed plant response rating” value (pigweed; [1]) was 0. For the same compound, the “Redroot pigweed plant response rating” value (pigweed; [2]) was 0, the “Redroot pigweed plant response rating” value (pigweed; [3]) was 0 and the “Plant response rating, Redroot pigweed” value (pigweed; Preemergence, Rate 62 g/ha) was 0. The “Plant response rating, Redroot pigweed” value (pigweed; Preemergence, Rate 125 g/ha) was 0, the “Redroot pigweed plant response rating” value (pigweed; [5]) was 3 and the “Redroot pigweed plant response rating” value (pigweed; [6]) was 0. For the same compound, the “Rape plant response rating” value (rape; [1]) was 0, the “Rape plant response rating” value (rape; [2]) was 0 and the “Rape plant response rating” value (rape; [3]) was 0. For the same compound, the “Plant response rating, Rape” value (rape; Preemergence, Rate 62 g/ha) was 0, the “Plant response rating, Rape” value (rape; Preemergence, Rate 125 g/ha) was 0 and the “Rape plant response rating” value (rape; [5]) was 0. The “Rape plant response rating” value (rape; [6]) was 0, the “Soybean plant response rating” value (soybean; [1]) was 4 and the “Soybean plant response rating” value (soybean; [2]) was 4. For the same compound, the “Soybean plant response rating” value (soybean; [3]) was 4, the “Plant response rating, Soybean” value (soybean; Preemergence, Rate 62 g/ha) was 0 and the “Plant response rating, Soybean” value (soybean; Preemergence, Rate 125 g/ha) was 0. For the same compound, the “Soybean plant response rating” value (soybean; [5]) was 0, the “Soybean plant response rating” value (soybean; [6]) was 4 and the “Sugarbeets plant response rating” value (sugar beet; [1]) was 0. For the same compound, the “Sugarbeets plant response rating” value (sugar beet; [2]) was 0, the “Sugarbeets plant response rating” value (sugar beet; [3]) was 0 and the “Plant response rating, Sugarbeets” value (sugar beet; Preemergence, Rate 62 g/ha) was 0. For the same compound, the “Plant response rating, Sugarbeets” value (sugar beet; Preemergence, Rate 125 g/ha) was 0, the “Sugarbeets plant response rating” value (sugar beet; [5]) was 2 and the “Sugarbeets plant response rating” value (sugar beet; [6]) was 0. The “Velvetleaf plant response rating” value (velvetleaf; [1]) was 0, the “Velvetleaf plant response rating” value (velvetleaf; [2]) was 0 and the “Velvetleaf plant response rating” value (velvetleaf; [3]) was 0. The “Plant response rating, Velvetleaf” value (velvetleaf; Preemergence, Rate 62 g/ha) was 0, the “Plant response rating, Velvetleaf” value (velvetleaf; Preemergence, Rate 125 g/ha) was 0 and the “Velvetleaf plant response rating” value (velvetleaf; [5]) was 0. The “Velvetleaf plant response rating” value (velvetleaf; [6]) was 0, the “Wheat plant response rating” value (wheat; [1]) was 0 and the “Wheat plant response rating” value (wheat; [2]) was 0. For the same compound, the “Wheat plant response rating” value (wheat; [3]) was 0, the “Plant response rating, Wheat” value (wheat; Preemergence, Rate 62 g/ha) was 0 and the “Plant response rating, Wheat” value (wheat; Preemergence, Rate 125 g/ha) was 3. For the same compound, the “Wheat plant response rating” value (wheat; [5]) was 2, the “Wheat plant response rating” value (wheat; [6]) was 0 and the “Wild oats plant response rating” value (wild oat; [1]) was 0. The “Wild oats plant response rating” value (wild oat; [2]) was 0, the “Wild oats plant response rating” value (wild oat; [3]) was 0 and the “Plant response rating, Wild oats” value (wild oat; Preemergence, Rate 62 g/ha) was 4. For the same compound, the “Plant response rating, Wild oats” value (wild oat; Preemergence, Rate 125 g/ha) was 6, the “Wild oats plant response rating” value (wild oat; [5]) was 8 and the “Wild oats plant response rating” value (wild oat; [6]) was 0. For the same compound, the “Nutsedge plant response rating” value (purple nutsedge; [1]) was 0, the “Nutsedge plant response rating” value (purple nutsedge; [3]) was 0 and the “Plant response rating, Nutsedge” value (purple nutsedge; Preemergence, Rate 125 g/ha, scale of 0 to 10 where 0 is no effect and 10 is complete control) was 4. For the same compound, the “Nutsedge plant response rating” value (purple nutsedge; [5]) was 6 and the “Nutsedge plant response rating” value (purple nutsedge; [6]) was 0.
